Legend:
[1] = system: E. coli murA CRISPRtOE strains vs lacZ controls; assay: CRISPRtOE pooled library competitive growth assay with fosfomycin; assay type: cell-based, E. coli K-12; settings: fosfomycin 0.4 μg/ml, ~10-15 doublings
Description: (§1) CRISPRtOE library growth experiments. Competition experiment growth. The E. coli CRISPRtOE murA and folA libraries were mixed in equal volume with the LP-lacZ library: 50 μl frozen stock (OD600=10) of each library (murA+LP-lacZ and folA+LP-lacZ) into 100 ml LB (starting OD600=0.01) in a 500 ml flask and incubated shaking at 37° C. until OD600=0.2 (˜2.5 h) (timepoint=T0) to revive the cells. […] (T1). These cultures were serially diluted back to OD600=0.01 into fresh tubes containing the same media and incubated again with shaking for 18 h at 37° C. (T2) for a total of ˜10-15 doublings. Cells were pelleted from 15 ml of culture in duplicate at each time point T0 and 1 ml of culture at timepoints T1 and T2 and stored at −20° C.
(§2) To test for overexpression phenotypes, the folA or murA library was mixed 50:50 with the lacZ control library and cells were grown in the presence/absence of TMP or FOS, respectively.

[2] = system: E. coli folA CRISPRtOE strains vs lacZ controls
Description: as §1, §2

[3] = system: E. coli folA CRISPRtOE isolates vs parent strains; settings: TMP 0.04-20 μg/ml, MHB, 20 h
Description: MIC assays. The minimal inhibitory concentration (MIC) of E. coli folA and murA CRISPRtOE isolates was determined by either growth in a microtiter plate or by disc diffusion assays, respectively. For the broth microdilution assay, CRISPRtOE isolates and WT controls were grown to saturation from an isolated colony and serially diluted to OD600=0.003) and the CRISPRtOE library was diluted from a glycerol stock to the same density. […] E. coli folA CRISPRtOE isolates, the folA CRISPRtOE library, a lacZ CRISPRtOE control, and WT cultures and the media containing antibiotic were mixed in equal proportions and incubated 20 h shaking at 37° C. prior to cell density (OD600) determination in a microplate reader. For the MIC strip assays, E. coli folA or murA CRISPRtOE isolates, a lacZ CRISPRtOE control, and WT cultures were diluted to OD600=0.3 and 300 μl was spread on a 100 mm MH agar plate and dried in a laminar flow cabinet. When dry, MIC strips (Liofilchem, Italy; 920371 (TMP 0.002-32 mg/L) and 920791(FOS 0.064-1024 mg/L)) were applied to the plate and 10 μl serially diluted antibiotics were applied to the discs. Plates were incubated at 37° C. for 18 h. Broth microdilution assays were repeated 3 times and MIC test strip assays twice.

[4] = system: E. coli whole genome CRISPRtOE library (promoter H)
Description: Whole genome experiment growth. The E. coli CRISPRtOE whole genome libraries with no promoter (sJMP10704) or promoter H (sJMP10705) were revived by dilution of 100 μl frozen stock (OD600=15) into 100 ml LB (starting OD600=0.015) and incubation in 500 ml flasks shaking at 37° C. until OD600=0.2 (˜2.5 h) (timepoint=TO). […] (T1). These cultures were serially diluted back to OD600=0.01 into fresh tubes containing the same media and incubated again with shaking for 18 h at 37° C. (T2) for a total of ˜10-15 doublings. Cells were pelleted from 15 ml of culture in duplicate at time point TO and 1 ml of culture at timepoints T1 and T2 and stored at −20° C.
A custom Python script (counting_spacers.py) was used to determine the number of times each spacer appeared in the filtered alignment file. […] Pairwise comparison of spacer counts in DMSO and TMP treatment samples was performed using edgeR^70 and a custom Rscript (comparison_of_spacer_counts_edgeR.R). The results were plotted using a custom Rscripts (plotting_scatter_plot.R, barplot_with_points.R, scatter_plot_commands.R). […]
To test the ability of CRISPRtOE to identify antibiotic-relevant gene phenotypes at the genome-scale, the libraries were grown in the presence or absence of a sub-lethal concentration of TMP and relative strain abundance was measured.

lacZ = assay: CRISPRt disruption of lacZ, blue-white screening of transconjugants; assay type: cell-based, E. coli K-12; settings: lacZ targeted
Description: Transfer of the CRISPRt/CRISPRtOE system to the bacterial chromosome. CRISPRt and CRISPRtOE strains were constructed by triparental mating of two E. coli donor strains-one with the pCRISPRt-H plasmid encoding Cas678-TniQ-TnsABC and another with the pCRISPRt-T or pCtOE plasmid containing the transposon with the guide RNA and antibiotic resistance- and a recipient strain (Table 1). All conjugations and selection post-conjugation were carried out at 30° C. regardless of the normal incubation temperature for the organism. Isolated donor and recipient strains were struck out on plates with the appropriate media and antibiotic (if relevant) concentrations. Colonies were resuspended from plates into the growth medium used for the recipient to a density of OD600=9. […]
For lacZ targeted CRISPRt, the color of 80 individual colonies was determined by patching on LB agar plates containing X-gal (20 μg/ml). […]
To test the precision of CRISPRt, both endogenous (lacZ) and heterologous (gfp) reporter genes were targeted for disruption in E. coli K-12 (data not shown). […] Next, targeting on the genome scale was determined by sequencing genomic DNA at the Tn6677 transposon junction (Tn-seq) using Illumina®-based Next Generation Sequencing (NGS). […]

E. coli genome = assay: Tn-seq of CRISPRt transposon insertion sites (specificity, orientation); assay type: cell-based, E. coli K-12; settings: insertions ~49 bp downstream of protospacer
From the text: FIGS. 1a-e illustrate a mobilizable, selectable, dual-plasmid system for CRISPR-guided transposition. 1a. Schematic of a targeted transposition gene knockout (CRISPRt) and gene overexpression (CRISPRtOE) system optimized for functional genomics. 1b. Schematic of mechanism of Vibrio cholera Type I-F CRISPR-associated transposon (Vc CAST) system. 1c. Schematic of strain construction using the CRISPRt targeted transposition system. Plasmids have pir-dependent origins of replication preventing replication in the bacterial recipient. […] Inside the recipient cell, the transposon (flanked in yellow) is inserted onto the chromosome at a site determined by the sequence of the guide RNA. […] Specificity of CRISPRt disruption of gfp and lacZ in E. coli measured by Tnseq. Mapping of location of transposon insertion sites to the E. coli genome after CRISPRt targeted transposition with gfp1 guide (226,671 reads) or LZ1 guide (216,801 reads). […]
Tnseq analysis of CRISPRt/CRISPRtOE constructs. […] PCR products were spin-purified (eluted in 15 μl) and quantified fluorometrically. […] Briefly, PCR products were amplified with nested primers containing i5 and i7 indexes and Illumina® TruSeq™ adapters followed by bead cleanup, quantification, pooling and running on a NovaSeq X Plus (150 bp paired end reads) or MiSeq (250 bp paired end reads). […]

C[C@@H]1O[C@@H]1P(=O)(O)O [FOS, fosfomycin]
increase in abundance of murA OE strains relative to lacZ controls [1]: 52 fold

COc1cc(Cc2cnc(N)nc2N)cc(OC)c1OC [TMP, trimethoprim]
increase in abundance of folA OE strains relative to lacZ controls [2]: 22 fold
shift in MIC between parent strains and folA CRISPRtOE isolates [3]: 15 to 30 fold
enrichment of folA-associated spacers [4]: > 1000 fold

lacZ: gRNA spacer LZ1 (Petassi, PMID: 33271061), SEQ ID NO: 16, targeting lacZ (guide CAACTTAATCGCCTTGCAGCACATCCCCCTTT; chemistry not given here)
transconjugants showing the expected disruption phenotype (lacZ): 100%
insertions in R-L orientation (E. coli genome): 74.1%
